Results as given in the supplement of paper PMC11997997.

What was measured:
[1] = test system: murine bone marrow-derived macrophages; assay: area under cytotoxicity dose-response curve (AUC (% cytotoxicity x dose, relative)); higher = more cytotoxic; settings: duration: 6 days; dose range: 0.13-80 uM, 8 points
In short: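 Values are the area under the cytotoxicity dose–response curve, calculated with GraphPad Prism version 10. Primary murine bone marrow-derived macrophages were exposed to final concentrations of 80–0.13 μM for 6 days, and viability was read by CellTiter-Glo luminescence with normalisation to vehicle and positive control wells.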

[2] = test system: Mycobacterium tuberculosis CDC1551 (intracellular, in murine BMDM); assay: area under intracellular growth-inhibition dose-response curve (AUC (% inhibition x dose, relative)); higher = more potent; settings: duration: 6 days; dose range: 0.13-80 uM, 8 points
In short: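 The value is the area under the growth-inhibition dose–response curve, calculated in GraphPad Prism. Primary murine bone marrow-derived macrophages were seeded in 384-well opaque plates and, 24 h later, infected for 1 h with luciferase-expressing M. tuberculosis CDC1551 at multiplicity of infection 1. Cells were then exposed for 6 days to an 8-dose, 2.5-fold series (final 80–0.13 μM). Growth was read with the Bright-Glo luciferin assay and normalised to a reference drug control and to the lowest-concentration wells.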

Compound	area under cytotoxicity dose-response curve [1]	area under intracellular growth-inhibition dose-response curve [2]
Cc1cc(OCC(=O)NNC(=O)c2ccncc2)ccc1C(C)C	34.5	259
C/C(=N\Nc1nc(C)c(C)s1)c1ccc([N+](=O)[O-])cc1	< 0	222
O=C(N/N=C/C=C/c1ccccc1[N+](=O)[O-])c1ccncc1	244	244
O=C(NC1CCCCCC1)c1ccc(Br)o1	27.7	231
O=C(N/N=C/C=C/c1ccccc1)c1ccncc1	< 0	266
COc1c(/C=N/NC(N)=S)c(C)nn1-c1ccccc1	32.6	194
O=C(COc1ccccc1)NC1C(=O)N2C(C(=O)O)=C(Cl)CSC12 (configuration not stated)	< 0	144
CCOC(=O)c1cnc(-n2nc(C)cc2C)nc1NCCc1ccccc1	21.7	247
CCOc1ncccc1C(=O)Nc1cc2c(cc1Br)OCCO2	24.1	132
NC1CCN(c2c(F)cc3c(=O)c(C(=O)O)cn(C4CC4)c3c2Cl)C1 (configuration not stated)	< 0	210
CN(C)[C@@H]1C(=O)C(C(N)=O)=C(O)[C@@]2(O)C(O)=C3C(=O)c4c(O)cccc4[C@@](C)(O)C3C[C@@H]12.Cl (some centres not stated)	65.9	232
O=C(NC1CCCC1)C1CC1c1ccccc1 (configuration not stated)	< 0	135
NC(=S)N/N=C/c1ccc(-c2ccc([N+](=O)[O-])cc2)o1	< 0	217
O=C(NCC1CCCCC1)c1ccco1	106	251
CC(=O)Nc1cccc(/C(C)=N/NC(N)=S)c1	< 0	235
CCOc1ccc(NC(=S)Nc2ccc(OC)cc2)cc1	13	233
O=C(c1cc2ccccc2o1)N1CCN(Cc2ccc3c(c2)OCO3)CC1	68.3	172
O=C(N/N=C/C=C/c1cccc([N+](=O)[O-])c1)c1ccncc1	17.5	111
CCCN(Cc1nnc(-c2ccccc2Cl)o1)C(=O)c1cc([N+](=O)[O-])cc([N+](=O)[O-])c1	38.7	84
C/C(=N/NC(=O)c1ccncc1)c1ccc(NC(=O)c2ccccc2)cc1	28.2	240
CCOC(=O)c1c(-c2ccccc2)nc2cc(C)ccn12	1.58	147

Compound	area under cytotoxicity dose-response curve [1]	area under intracellular growth-inhibition dose-response curve [2]
O=C(NC1CCCCCCC1)c1ccc(F)cc1	16.9	180
Cc1nnc(SCC2=C(C(=O)O)N3C(=O)C(NC(=O)COc4ccc(F)cc4)C3SC2)s1 (configuration not stated)	2.64	212
COc1ccc(N2C(C)=CC(=Cc3sc4ccccc4[n+]3C)C=C2C)cc1.[I-]	87.2	< 0
CCCc1cc(C(=O)NC2CCCCC2)no1	108	232
C/C(CC(=O)Nc1cccc(C(F)(F)F)c1)=N\NC(=O)c1ccncc1	< 0	212
C/C(Cn1cnc([N+](=O)[O-])n1)=N\NC(=O)c1ccncc1	39.4	249
CC(NC(=O)COC(=O)c1ccc(N2CCCC2=O)cc1)c1ccc(F)cc1 (configuration not stated)	< 0	37.5
CCN(C(=O)COC(=O)c1nc(Cl)ccc1Cl)c1c(N)n(Cc2ccccc2)c(=O)[nH]c1=O	73	28.6
O=C(NCC1CCCCC1)c1ccc(Br)o1	< 0	274
O=C(N/N=C\c1ccc(Cl)s1)C1COc2ccccc2O1 (configuration not stated)	2.47	129
Cc1cc(Cl)ccc1OCCCC(=O)NNC(=O)c1ccncc1	< 0	271
CC(=O)OCC1=C(C(=O)O)N2C(=O)C(NC(=O)Cn3nc(C(F)F)c(Cl)c3C)C2SC1 (configuration not stated)	2.26	195
CCCc1ccc(C(=O)CCC(=O)NNC(=O)c2ccncc2)cc1	9.69	270
Cc1cc(Br)cnc1NC(=S)Nc1ccc(F)cc1F	33.7	247
O=C(CCN1C(=O)S/C(=C/c2ccccc2)C1=O)Nc1ccc(C(=O)O)c(O)c1	156	117
Nc1ccc(S(=O)(=O)Nc2cnc3ccccc3n2)cc1	< 0	156
COc1cccc(CNC(=O)CN2C(=O)NC(Cc3ccccc3)(c3ccccc3)C2=O)c1 (configuration not stated)	1.94	89.4
Cc1nnc(NS(=O)(=O)c2ccc(N)cc2)s1	29.3	121
CCc1ccc(NC(=S)Nc2ccc3c[nH]nc3c2)cc1	33.8	237
NC(=S)N/N=C/c1ccc2c(c1)OCCO2	< 0	263
Cc1cc(C(C)(C)C)cc(C)c1C[n+]1c2n(c3ccc(C(F)(F)F)cc31)CCCCC2.[Cl-]	120	138

Compound	area under cytotoxicity dose-response curve [1]	area under intracellular growth-inhibition dose-response curve [2]
O=C(NCc1ccccc1F)c1ccc2c(c1)OCO2	87.2	79.5
COc1ccc(CCNC(=O)c2cc([N+](=O)[O-])cc([N+](=O)[O-])c2)cc1OC	< 0	243
COc1sc(SC)cc1/C=N/NC(=O)c1ccncc1	26.8	176
CC(C)(C)C(=O)/C(=C/c1ccncc1)n1cncn1	106	32
CCC(C)N1CCC2(CC1)N=c1c3c(O)c4c(O)c(C)c5c(c4c1=N2)C(=O)[C@@](C)(OC=C[C@H](OC)[C@@H](C)[C@@H](OC(C)=O)[C@H](C)[C@H](O)[C@H](C)[C@@H](O)[C@@H](C)C=CC=C(C)C(=O)N3)O5 (some centres not stated)	86.3	253
Cc1ccc(C(=O)NC(C)C2CC3CCC2C3)cc1 (configuration not stated)	< 0	267
Nc1ccc(C(=O)[O-])c(O)c1.O.[Na+]	0.704	184
COc1ccc(CNc2nc3nc(C)c(Cl)c(O)n3n2)cc1	9.37	186
COc1ccc(CNc2nc3nc4c(c(O)n3n2)CCC4)cc1	15.2	140
CCCCC(=O)NCc1ccccc1Cl	22.2	262
CCn1c(-c2cccs2)nc2ccccc21	69.6	194
Cc1cccc(Cn2ccc(NC(=O)c3ccc4c(c3)OCO4)n2)c1	85.5	133
Cc1cccc(N2CCN(Cc3ccc([N+](=O)[O-])o3)CC2)c1C	38.8	221
CCCN=C1C(=O)C2=C(C(O)=C1C)N1CC3NC3[C@@]1(OC)C2COC(N)=O (some centres not stated)	121	166
COc1cc(C(=O)Nc2cc(S(=O)(=O)N3CCOCC3)ccc2N2CCOCC2)ccc1OC(F)F	< 0	44.6
CNc1nc(N2CCc3ccccc32)ncc1F	< 0	140
CCC[C@@H](CN1CCC[C@H]1CN1C(N)=NC[C@H]1CC(C)C)N1C[C@@H]([C@H](C)CC)N(CCc2ccc(Cl)c(Cl)c2)C1=N	13.4	129
CNC(=S)N/C=N/OCc1c(Cl)cccc1Cl	86.9	83.8
O=C(CSc1nc2ccccc2s1)NCc1cc([N+](=O)[O-])ccc1O	48	39.4
